Data taken from patent US20140308313A1 (priority 2006, published 2014).

What was measured:
[1] = tested on: MenB antigens ΔG287nz-953, 936-741 and 961c; parameters: species or system mice; conditions: mouse, in vivo
[2] = tested on: H3N2-specific antibodies; assay: H3N2 antibody response in mice bearing or lacking iNKT cells or CD1d; format: in vivo; conditions: mice lacking CD1d (CD1−/−); data not shown
Description: Mice lacking iNKT cells (Ja18−/−) immunised with H3N2 and α-GC (closed boxes) show no enhancement in serum titer of H3N2-specific antibodies compared to mice lacking iNKT cells immunised with H3N2 alone (open boxes). All immunisations were subcutaneous.

[3] = tested on: protein-specific antibodies (TT, DT, H3N2); parameters: species or system C57/BL6 mice; conditions: mouse, in vivo
[4] = tested on: MenB-specific memory B cells; parameters: species or system mice; conditions: mouse, in vivo
[5] = tested on: GBS80-IgG; parameters: species or system mice; conditions: mouse, in vivo
[6] = tested on: H3N2-specific antibodies; assay: α-GC in first, second or both priming doses of H3N2, challenge at week 56; format: in vivo, C57BL/6 mice
Description: (§1) FIG. 8 depicts the immunisation schedule used to assess whether α-GC is required to be present in all vaccine doses used at priming. 20 C57BL/6 female mice, aged 6-8 weeks, were divided into 4 groups of 5 mice. Group 1) was immunised with H3N2 in PBS at week 0 and H3N2+α-GC 2 weeks later. Group 2) were immunised with H3N2+α-GC at week 0 and H3N2 in PBS 2 weeks later. Group 3) were immunised with H3N2 in PBS at week 0 and week 2. Group 4) were immunised with H3N2 and α-GC at week 0 and 2 weeks later. 56 weeks after the initial immunisation, mice in all groups were challenged with 3 μg H3N2 in PBS and recall response was assessed at 58 weeks. All immunisations were intramuscular.
as §1, with “20” for “FIG. 8 depicts the immunisation schedule used to assess whether α-GC is required to be present in all vaccine doses used at priming. 20”, “PBS.” for “PBS and recall response was assessed at 58 weeks.”

[7] = tested on: MenB; parameters: species or system mice; conditions: mouse, in vivo
[8] = tested on: CD4 T cells producing TNFα; format: in vivo, CD1 mice; conditions: 10 days after 2nd immunisation, splenocytes cultured 16 hours
Procedure: FIG. 14 show a comparison of the CD4 T cell response against recombinant MenB antigens in mice immunised intramuscularly on day 0 and 21 with: a) a combination vaccine containing 3 MenB antigens and α-GC; b) a combination vaccine containing 3 MenB antigens and Alum; or c) with a combination vaccine containing 3 MenB antigens alone. The CD4 T cell response was assessed two weeks after the second immunisation by incubating total splenocytes with the indicated amount of MenB recombinant proteins for 16 hours ([…] of which in the presence of Brefeldin A). The number CD4 T cells producing TNFα was determined by intracellular staining and FACS analysis). […] As a positive control, response of all three groups of mice to polyclonal stimulation was tested.
A second experiment was conducted to assess the ex vivo CD4 T cell response to MenB antigens. Groups of 6 CD1 female mice were immunised twice with the mix of MenB antigens, formulated in PBS, alum or α-GC. 10 days after the 2nd immunisation, 3 mice/group were sacrificed and their spleens were removed. Whole splenocyte suspensions from individual mice were cultured with the MenB antigens for 16 hours, the last 12 of which were in the presence of brefeldin A to allow intracellular accumulation of cytokines. […] Percentages of CD3+CD4+CD69+ cytokine+ cells in the total CD4+ cell population were determined by FACS analysis.

SMILES: CCCCCCCCCCCCCCCCCCCCCCCCCC(=O)N[C@@H](CO[C@H]1OC(CO)[C@H](O)C(O)C1O)[C@H](O)[C@@H](O)CCCCCCCCCCCCCC (stereo partly drawn) [α-GC, α-galactosylceramide]
- antibody response (IgG titers) to the three MenB antigens [1]: as effective as alum
- adjuvant activity [2]: did not display adjuvant activity
- serum titers of protein-specific antibodies compared to proteins alone [3]: one to two logs higher
- frequencies of MenB-specific memory B cells in spleen compared to alum [4]: higher frequencies of MenB-specific memory B cells
- GBS80-IgG response in the mothers relative to alum [5]: 8 fold
- efficacy by timing of α-GC dose ([6]; first versus second vaccine dose): Maximal efficacy was observed when α-GC was given in the first vaccine dose
- recall response (H3N2 Ig titers) compared to 2 doses of H3N2 alone ([6]; two weeks after booster with H3N2 alone on week 56): higher recall responses
- H3N2-antibody response compared to H3N2 in PBS ([6]; α-GC in both, first only or second only immunisation): enhance the antibody response even when given only in the first or second immunisation
- bactericidal antibody titers compared to alum [7]: higher bactericidal antibody titers than alum
- expansion of CD4 T cells producing TNFα in response to MenB antigens [8]: more effective than alum
